In ChEMBL document CHEMBL5505974, “Design, synthesis, and bioactivity evaluation of novel indole-selenide derivatives as P-glycoprotein inhibitors against multi-drug resistance in MCF-7/ADR cell” (Eur J Med Chem, 2024):
Activity calls are given as the source filed them. The calls are words filed in the database; no cut-off is given here.

What was measured:
[1] = system: MCF7; assay: Cytotoxicity against chemo-sensitive human MCF7 cells assessed as inhibition rate at 5 uM incubated for 48 hrs by CCK8 assay relative to control; assay type: functional
[2] = system: NCI/ADR-RES; assay: Cytotoxicity against doxorubicin resistant human MCF-7/ADR cells assessed as inhibition rate at 5 uM incubated for 48 hrs by CCK8 assay relative to control; assay type: functional
[3] = system: NCI/ADR-RES; assay: Reversal fold, ratio of doxorubicin IC50 to doxorubicin IC50 in presence of test compound for reversal of P-gp mediated multidrug resistance in doxorubicin resistant human MCF-7/ADR cells incubated for 48 hrs by CCK-8 assay; assay type: functional
[4] = target: T1, ATP-dependent translocase ABCB1 (Homo sapiens, UniProt P08183); assay: Inhibition of P-gp-mediated rhodamine-123 efflux in doxorubicin-resistant human MCF-7/ADR cells assessed as increase in Rh123 accumulation incubated for 4 hrs by fluorescence microscopic analysis; assay type: cell-based; settings: at 0.1 to 10 µM, dose 0.1-10 µM
[5] = system: NCI/ADR-RES; assay: Effect on P-gp expression level in doxorubicin-resistant human MCF-7/ADR cells at 0.5 to 5 uM incubated for 48 hrs by Western blot analysis; assay type: functional, cell-based; settings: dose 0.5-5 µM
[6] = target: T1, ATP-dependent translocase ABCB1; assay: Inhibition of P-gp in doxorubicin resistant human MCF-7/ADR cells assessed as increase in UIC-2 binding to cell at 50 uM incubated for 10 mins by UIC-2 reactivity shift assay; assay type: cell-based

T1 sequence (P08183 whole entry): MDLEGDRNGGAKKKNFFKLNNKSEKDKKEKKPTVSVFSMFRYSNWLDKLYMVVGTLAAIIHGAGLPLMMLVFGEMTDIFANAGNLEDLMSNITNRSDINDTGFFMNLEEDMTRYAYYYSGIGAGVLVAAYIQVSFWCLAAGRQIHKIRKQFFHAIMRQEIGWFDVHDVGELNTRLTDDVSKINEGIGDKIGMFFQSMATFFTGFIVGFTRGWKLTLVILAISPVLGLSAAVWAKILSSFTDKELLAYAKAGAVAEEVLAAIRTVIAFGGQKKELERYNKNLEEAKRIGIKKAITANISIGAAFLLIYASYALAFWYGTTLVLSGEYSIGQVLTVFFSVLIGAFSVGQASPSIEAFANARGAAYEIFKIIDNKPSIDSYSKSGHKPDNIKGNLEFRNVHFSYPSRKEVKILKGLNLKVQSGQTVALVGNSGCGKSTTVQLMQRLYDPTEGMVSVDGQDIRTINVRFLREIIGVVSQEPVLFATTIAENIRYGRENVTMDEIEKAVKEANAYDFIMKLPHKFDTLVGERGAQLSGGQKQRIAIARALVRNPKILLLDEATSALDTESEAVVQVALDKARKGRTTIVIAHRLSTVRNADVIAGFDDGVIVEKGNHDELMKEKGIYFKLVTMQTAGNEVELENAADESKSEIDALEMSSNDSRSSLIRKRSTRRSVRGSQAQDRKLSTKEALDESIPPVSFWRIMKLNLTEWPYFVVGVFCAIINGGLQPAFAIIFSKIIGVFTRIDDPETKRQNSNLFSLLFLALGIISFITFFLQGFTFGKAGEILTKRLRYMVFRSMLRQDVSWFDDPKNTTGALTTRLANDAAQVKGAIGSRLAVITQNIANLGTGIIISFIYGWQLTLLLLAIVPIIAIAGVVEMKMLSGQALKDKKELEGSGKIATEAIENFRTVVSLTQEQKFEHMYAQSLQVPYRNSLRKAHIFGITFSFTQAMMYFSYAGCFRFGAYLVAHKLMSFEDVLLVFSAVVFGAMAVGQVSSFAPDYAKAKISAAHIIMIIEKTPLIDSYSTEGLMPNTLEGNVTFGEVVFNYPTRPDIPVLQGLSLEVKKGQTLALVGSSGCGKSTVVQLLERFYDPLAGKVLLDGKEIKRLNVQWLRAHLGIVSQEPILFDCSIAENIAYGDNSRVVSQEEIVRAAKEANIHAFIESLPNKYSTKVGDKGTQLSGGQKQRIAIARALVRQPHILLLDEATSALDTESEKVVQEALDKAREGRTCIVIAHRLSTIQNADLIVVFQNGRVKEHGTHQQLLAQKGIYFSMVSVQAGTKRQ

| Structure (SMILES) | inhibition at 5 µM [1] | inhibition at 5 µM [2] | Ratio IC50 [3] | inhibition (INH) [4] | Activity [5] | inhibition (INH) [6] |
| --- | --- | --- | --- | --- | --- | --- |
| O=C(NCc1ccccn1)c1cccc([Se]c2c[nH]c3ccccc23)c1 | 17.5% | 15.1% | 8.49 | – | – | – |
| COc1ccc(CNC(=O)c2cccc([Se]c3c[nH]c4ccccc34)c2)cc1OC | 8.6% | 15.4% | 2.4 | – | – | – |
| COc1ccc(CCN(C)CCCC(C#N)(c2ccc(OC)c(OC)c2)C(C)C)cc1OC (centres undefined) | 8.3% | – | – | – | – | – |
| COc1ccc(CNC(=O)c2ccc([Se]c3c[nH]c4ccccc34)cc2)cc1OC | 11.9% | 18.3% | 3.61 | – | – | – |
| COc1ccc(NC(=O)c2cccc([Se]c3c[nH]c4ncccc34)c2)cc1OC | 6.3% | 2% | 4.2 | – | – | – |
| O=C(NCc1ccccn1)c1cccc([Se]c2c[nH]c3ncccc23)c1 | 1% | 3% | 2 | – | – | – |
| COc1cc2c(cc1OC)CN(C(=O)c1ccc([Se]c3c[nH]c4ccccc34)cc1)CC2 | 1.2% | 3.2% | 3.06 | – | – | – |
| COc1ccc(CNC(=O)c2cccc([Se]c3c[nH]c4ncccc34)c2)cc1OC | 15.7% | 13.4% | 4 | – | – | – |
| COc1cc2c(cc1OC)CN(C(=O)c1cccc([Se]c3c[nH]c4ccc(C(=O)NC(C)C)cc34)c1)CC2 | 11.2% | 13% | 3.9 | – | – | – |
| COc1ccc(NC(=O)c2cccc([Se]c3c[nH]c4ccc(-c5cnn(C)c5)cc34)c2)cc1OC | 35.6% | 47% | 98.4 | – | – | – |
| COc1ccc(NC(=O)c2cccc([Se]c3c[nH]c4ccccc34)c2)cc1OC | 5.2% | 9.2% | 5.67 | – | – | – |
| COc1cc2c(cc1OC)CN(C(=O)c1cccc([Se]c3c[nH]c4ccc(-c5cnn(C)c5)cc34)c1)CC2 | 21.1% | 33.7% | 271.7 | Dose-Dependent Effect | inactive | Active |
| O=C(NCc1ccccn1)c1cccc([Se]c2c[nH]c3ccc(C(=O)Nc4ccc(F)cc4)cc23)c1 | 7% | 10.1% | 2.7 | – | – | – |
| O=C(NCc1ccccn1)c1ccc([Se]c2c[nH]c3ccccc23)cc1 | 0.2% | 2.2% | 1.65 | – | – | – |
| COc1cc2c(cc1OC)CN(C(=O)c1cccc([Se]c3c[nH]c4ccc(C(=O)NCCN(C)C)cc34)c1)CC2 | 9.7% | 13.6% | 7.5 | – | – | – |
| COc1cc2c(cc1OC)CN(C(=O)c1cccc([Se]c3c[nH]c4ccccc34)c1)CC2 | 1.8% | 11.2% | 4.12 | – | – | – |
| CN(C)CCNC(=O)c1ccc2[nH]cc([Se]c3cccc(C(=O)NCc4ccccn4)c3)c2c1 | 15.5% | 20.9% | 3.6 | – | – | – |
| O=C(NCc1ccccn1)c1cccc([Se]c2c[nH]c3ccc(F)cc23)c1 | 3.6% | 13.5% | 2.7 | – | – | – |

| Structure (SMILES) | inhibition at 5 µM [1] | inhibition at 5 µM [2] | Ratio IC50 [3] | inhibition (INH) [4] | Activity [5] | inhibition (INH) [6] |
| --- | --- | --- | --- | --- | --- | --- |
| COc1ccc(NC(=O)c2ccc([Se]c3c[nH]c4ccccc34)cc2)cc1OC | 5.5% | 7.3% | 3.98 | – | – | – |
| CNC(=O)c1ccc2[nH]cc([Se]c3cccc(C(=O)NCc4ccccn4)c3)c2c1 | 15.1% | 12.8% | 5.7 | – | – | – |
| COc1cc2c(cc1OC)CN(C(=O)c1cccc([Se]c3c[nH]c4ccc(C(=O)Nc5ccc(F)cc5)cc34)c1)CC2 | 9.6% | 1.3% | 6.9 | – | – | – |
| COc1ccc(Cn2cc([Se]c3cccc(C(=O)N4CCc5cc(OC)c(OC)cc5C4)c3)c3ccccc32)cc1 | 10.5% | 4.7% | 25.8 | – | – | – |
| COc1ccc(Cn2cc([Se]c3cccc(C(=O)Nc4ccc(OC)c(OC)c4)c3)c3ccccc32)cc1 | 4.2% | 7% | 16.4 | – | – | – |
| COc1cc2c(cc1OC)CN(C(=O)c1cccc([Se]c3c[nH]c4ccc(F)cc34)c1)CC2 | 17.4% | 26% | 95.1 | – | – | – |
| CNC(=O)c1ccc2[nH]cc([Se]c3cccc(C(=O)N4CCc5cc(OC)c(OC)cc5C4)c3)c2c1 | 1.2% | 9.4% | 5.1 | – | – | – |
| COc1ccc(NC(=O)c2ccc3[nH]cc([Se]c4cccc(C(=O)NCc5ccccn5)c4)c3c2)cc1 | 6.6% | 9% | 4.4 | – | – | – |
| COc1ccc(NC(=O)c2ccc3[nH]cc([Se]c4cccc(C(=O)Nc5ccc(OC)c(OC)c5)c4)c3c2)cc1 | 5.2% | 1.7% | 5.2 | – | – | – |
| COc1cc2c(cc1OC)CN(C(=O)c1cccc(Sc3c[nH]c4ccc(-c5cnn(C)c5)cc34)c1)CC2 | 22.7% | 19.6% | 46.3 | – | – | – |
| COc1cc2c(cc1OC)CN(C(=O)c1cccc([Se]c3c[nH]c4ncccc34)c1)CC2 | 7.7% | 5.8% | 2.8 | – | – | – |
| COc1ccc(-c2ccc(C(=O)N3CCc4cc(OC)c(OC)cc4C3)o2)cc1 | 11.7% | 16.3% | 23.7 | – | – | – |
| C/C=C/C[C@@H](C)[C@@H](O)[C@H]1C(=O)N[C@@H](CC)C(=O)N(C)CC(=O)N(C)[C@@H](CC(C)C)C(=O)N[C@@H](C(C)C)C(=O)N(C)[C@@H](CC(C)C)C(=O)N[C@@H](C)C(=O)N[C@H](C)C(=O)N(C)[C@@H](CC(C)C)C(=O)N(C)[C@@H](CC(C)C)C(=O)N(C)[C@@H](C(C)C)C(=O)N1C [CYCLOSPORINE] | – | 25.6% | – | – | – | – |
| COc1cc2c(cc1OC)CN(CCc1ccc(NC(=O)c3cc(OC)c(OC)cc3NC(=O)c3cnc4ccccc4c3)cc1)CC2 | 36.9% | 45.1% | 261.6 | – | – | – |
| COc1ccc(NC(=O)c2ccc3[nH]cc([Se]c4cccc(C(=O)N5CCc6cc(OC)c(OC)cc6C5)c4)c3c2)cc1 | 5.9% | 8.7% | 9.1 | – | – | – |
| CNC(=O)c1ccc2c([Se]c3cccc(C(=O)NCc4ccccn4)c3)c[nH]c2c1 | 13.3% | 10.8% | 1.2 | – | – | – |
| CNC(=O)c1cccc2c([Se]c3cccc(C(=O)NCc4ccccn4)c3)c[nH]c12 | 9.2% | 13.2% | 2 | – | – | – |
